Consider 1 compound from PMC9914026, “Identification of a Novel ACE Inhibitory Hexapeptide from Camellia Seed Cake and Evaluation of Its Stability” (Foods, 2023).

Molecules are shown by their SMILES. Peptide text beside a SMILES is read from it.

The target of series [1] is T1, Angiotensin I-converting enzyme (ACE) from rabbit lungs (Oryctolagus cuniculus, UniProt P12822).
T1 construct: Angiotensin I-converting enzyme (ACE) from rabbit lungs (0.1 U); purchased Sigma-Aldrich (St. Louis, MO, USA); host or cells: rabbit lung tissue
T1 sequence (P12822 34-1310): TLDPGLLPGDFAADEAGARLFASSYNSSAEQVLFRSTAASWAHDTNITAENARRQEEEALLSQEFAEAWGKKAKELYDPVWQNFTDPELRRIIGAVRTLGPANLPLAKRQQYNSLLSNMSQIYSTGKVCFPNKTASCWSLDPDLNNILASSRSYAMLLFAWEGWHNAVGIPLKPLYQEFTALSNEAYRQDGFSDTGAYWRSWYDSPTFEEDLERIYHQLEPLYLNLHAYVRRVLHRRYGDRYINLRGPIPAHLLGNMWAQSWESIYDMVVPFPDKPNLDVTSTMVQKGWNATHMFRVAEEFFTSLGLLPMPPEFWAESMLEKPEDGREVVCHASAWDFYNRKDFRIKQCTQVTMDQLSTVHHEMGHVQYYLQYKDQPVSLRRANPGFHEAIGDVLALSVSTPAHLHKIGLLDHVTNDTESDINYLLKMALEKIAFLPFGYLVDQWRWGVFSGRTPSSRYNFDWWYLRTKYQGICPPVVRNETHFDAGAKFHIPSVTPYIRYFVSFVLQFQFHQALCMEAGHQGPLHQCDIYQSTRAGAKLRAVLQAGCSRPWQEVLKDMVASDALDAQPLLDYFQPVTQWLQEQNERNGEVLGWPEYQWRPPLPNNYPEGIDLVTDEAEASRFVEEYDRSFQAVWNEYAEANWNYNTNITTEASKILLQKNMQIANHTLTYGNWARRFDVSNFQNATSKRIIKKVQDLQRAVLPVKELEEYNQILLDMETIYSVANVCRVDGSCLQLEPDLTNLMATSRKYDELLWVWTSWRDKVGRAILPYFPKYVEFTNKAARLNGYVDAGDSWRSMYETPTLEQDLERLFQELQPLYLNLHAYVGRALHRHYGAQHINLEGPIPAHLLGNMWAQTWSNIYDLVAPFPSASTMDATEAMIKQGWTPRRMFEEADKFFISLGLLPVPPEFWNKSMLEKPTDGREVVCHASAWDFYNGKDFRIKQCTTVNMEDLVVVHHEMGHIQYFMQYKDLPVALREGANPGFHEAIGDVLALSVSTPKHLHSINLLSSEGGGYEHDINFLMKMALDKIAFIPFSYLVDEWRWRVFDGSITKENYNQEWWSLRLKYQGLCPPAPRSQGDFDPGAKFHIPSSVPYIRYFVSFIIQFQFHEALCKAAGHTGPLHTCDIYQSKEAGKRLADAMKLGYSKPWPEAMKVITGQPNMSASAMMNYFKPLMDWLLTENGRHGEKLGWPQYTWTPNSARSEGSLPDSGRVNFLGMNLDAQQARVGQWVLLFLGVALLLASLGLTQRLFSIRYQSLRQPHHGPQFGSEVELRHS
Briefly: ACE inhibitory activity (HHL substrate, HPLC of hippuric acid). It counts as biochemical. An excerpt:
Camellia seeds were purchased from Quzhou City, Zhejiang Province. Angiotensin I-converting enzyme (ACE) from rabbit lungs (0.1 U) (Table A1), ACE substrate hippuryl-histidyl-leucine (HHL) and hippuric acid (HA) standards were purchased from Sigma-Aldrich (St. Louis, MO, USA). Neutral protease (50,000 U/g), alkaline protease (200,000 U/g), papain (800,000 U/g), trypsin (250,000 U/g), and Sephadex G-25 were purchased from Beijing Solarbio Science & Technology Co., Ltd. (Beijing, China). All other chemicals used were of analytical grade.
The ACE inhibition rate was determined using High-Performance Liquid Chromatography (HPLC). In summary, 60 μL of HHL (2.5 mM) and 20 μL of samples were mixed and incubated at 37 °C for 5 min before 40 μL of ACE (0.05 U/mL) was added. The mixture was incubated at 37 °C for 1 h. Finally, the reaction was terminated by adding 120 μL of HCl solution (1 mol/L). The content of HA in the reaction system was detected by a PITC pre-column derivatization HPLC (Shimadzu LC-20AT) with a column C18 Hypersil ODS2 (4.6 mm×250 mm, 5 μm) at 228 nm. Isocratic elution was processed with the acetonitrile-water (volume ratio 1:3, each containing 0.1% TFA) solution at a constant flow rate of 1 mL/min. […]

The target in series [2] is T1, Angiotensin I-converting enzyme (ACE) from rabbit lungs. The experiment in a line: Stability after in vitro treatment with digestive enzymes (pepsin, trypsin). It counts as in vitro ADME. The following applies: 0.4 mg/mL, 2 h, read-out ACE inhibition rate, n = 3. On the procedure:
The ACE inhibition rate was determined using High-Performance Liquid Chromatography (HPLC). In summary, 60 μL of HHL (2.5 mM) and 20 μL of samples were mixed and incubated at 37 °C for 5 min before 40 μL of ACE (0.05 U/mL) was added. The mixture was incubated at 37 °C for 1 h. Finally, the reaction was terminated by adding 120 μL of HCl solution (1 mol/L). The content of HA in the reaction system was detected by a PITC pre-column derivatization HPLC (Shimadzu LC-20AT) with a column C18 Hypersil ODS2 (4.6 mm×250 mm, 5 μm) at 228 nm. Isocratic elution was processed with the acetonitrile-water (volume ratio 1:3, each containing 0.1% TFA) solution at a constant flow rate of 1 mL/min. The ACE inhibition rate (%) was calculated based on the following formula:ACE inhibition rate (%) = [(A0 − A1) / A0] × 100%(4) where A0 and A1 equal the HA peak areas of the blank control and sample, respectively.
The stability of VVVPQN after in vitro treatment with digestive enzymes was carried out by the method of Chai with some modifications. Briefly, in a water bath at 37 °C, VVVPQN (0.4 mg/mL) was first digested with 2% (w/w) pepsin at pH 2.0 for 2 h. The pH was then adjusted to 7.0 before trypsin was added at a 1:50 enzyme to substrate ratio. […] The stability of VVVPQN was evaluated by comparing the ACE inhibition rate before and after the digestion.

What is called IC50 is the concentration needed to halve the response being measured. Regarding `CC(C)[C@H](N)C(=O)N[C@H](C(=O)N[C@H](C(=O)N1CCC[C@H]1C(=O)N[C@@H](CCC(N)=O)C(=O)N[C@@H](CC(N)=O)C(=O)O)C(C)C)C(C)C` [VVVPQN, Val-Val-Val-Pro-Gln-Asn] (H-VVVPQN-OH), the IC50 in series [1] (from regression equation y = 23.595 ln(x) + 98.175) was 199 µM. This compound gave an ACE inhibitory activity in series [1] (synthetic peptide 0.5 mg/mL, HHL 2.5 mM, ACE 0.05 U/mL, 37 °C 1 h, HPLC 228 nm, mean, n = 3) of 80.46%. In addition, the “Change of ACE inhibitory activity after simulated gastric digestion” value in series [2] (2% (w/w) pepsin, pH 2.0, 37 °C) is recorded as “decreased significantly”. Besides, the “Change of ACE inhibitory activity after further simulated intestinal digestion” value in series [2] (after pepsin: trypsin 1:50 enzyme to substrate, pH 7.0, 37 °C) is listed as “did not change significantly”.
